Source: patent US4642341A, “Carbapenem antibiotics” (priority 1985, dated 1987)
Converted amounts (≈) assume the structure as drawn. Read-outs that look alike come from different tables or passages of the source.

Legend:
P. mirabilis A-9900 = experiment: Minimum Inhibitory Concentration, tube dilution; type: cell-based; settings: Proteus mirabilis, A9900, overnight 37° C.; table 6
E. coli A15119 = experiment: Minimum Inhibitory Concentration, tube dilution; type: cell-based; settings: Escherichia coli, A15119, overnight 37° C.; table 6
K. pneumoniae A20468 = experiment: Minimum Inhibitory Concentration, tube dilution; type: cell-based; settings: Klebsiella pneumoniae
S. pyogenes A-9604 = experiment: Minimum Inhibitory Concentration, tube dilution; type: cell-based; settings: Streptococcus pyogenes, A9604, overnight 37° C.; table 6
P. aeruginosa A-9843A = experiment: Minimum Inhibitory Concentration, tube dilution; type: cell-based; settings: Pseudomonas aeruginosa, A9843A, overnight 37° C.; table 6; read-out: MIC
[1] = Half-life in phosphate buffer pH 7.4; type: physicochemical; settings: phosphate buffer; for half-life at 100 µM: pH 7.4, τ1/2 (half-life); for half-life: pH 7.4, t1/2 (half-life)
Description: To a solution of p-nitrobenzyl 3-[2-(1-pyridinium)ethylthio)]-6α[1-(R)-hydroxyethyl]-7-oxo-1-azabicyclo(3.2.0)hept-2-ene-carboxylate diphenylphosphate (0.16 g, 0.22 mmol) in wet tetrahydrofuran (10mL) was added ether (10mL), potassium phosphate monobasic-sodium hydroxide buffer pH 7.4 (16 mL, 0.05 M) and 10% palladium on charcoal (0.16 g). The resulting mixture was hydrogenated under 40 psi for 1 h at 25° C. The two phases were separated and the organic phase was extracted with water (2×3 mL). The aqeuous solutions were combined, washed with ether (2×10 ml) and poured on top of a column (1.5×6.2 cm) pf μ-bondapak C-18 after the traces of organic solvents have been removed under vacuum. Elution of the column with water gave after lyophylization of the appropriate fractions a yellowish powder 0.062 g (84%), ir (KBr) .nu.max : 3700-3000 (OH), 1755 (C--O of β-lactam), 1630 (pyridinium), 1590 cm^-1 (carboxylate), ^1 Hmr (D2 O): 1.22 (3H, d, J=6.4 Hz, CH3 CHOH), 2.92 (d, J=9.1 Hz, H-4), 2.97 (d, J=9.1 Hz, H-4), 3.20 (dd, J=2.5 Hz, J=6.1 Hz, H-6), 3.44 (t, J=6.0 Hz, CH2 S), 3.93 (dd, J=9.1 Hz, J=2.5 Hz, H-5), 4.82 (t, J=6.0 Hz, CH2 N^+), 8.04 (m, Hm of pyridinium), 8.5 (m, Hp of pyridinium), 8.82 (dd, J=3.2. Hz, J=1.1 Hz, Ho of pyridinium), uv (H2 O) λ max : 259 (ε5800), 296 (ε7030) mμ, .tau.1/2 =13.5 h (measured at a concentration of 10^-4 M in phosphate buffer pH 7.4 at 36.8° C.).

S. aureus A-9537 = experiment: Minimum Inhibitory Concentration, tube dilution; type: cell-based; settings: Staphylococcus aureus, table 6, read-out: MIC
P. aeruginosa A9843A = experiment: animal or person; type: in vivo, mice; settings: Pseudomonas aeruginosa, in Mus musculus, im, 3.5 h, read-out: PD50 /treatment
Description: (§1) Drugs were administered i.m. 0 to 2 hours post-infection (A9606) or 1 and 3.5 hours post-infection for the others.

H. influenzae A-9833 = experiment: Minimum Inhibitory Concentration, tube dilution; type: cell-based; settings: Haemophilus influenzae, A9833; overnight 37° C.; table 6; read-out: MIC
[2] = system: S. aureus A-9606 (Pen-res.); experiment: Minimum Inhibitory Concentration, tube dilution; type: cell-based; settings: Staphylococcus aureus, Pen-res; table 6
P. vulgaris A21559 = experiment: Minimum Inhibitory Concentration, tube dilution; type: cell-based; settings: Proteus vulgaris, A21559, overnight 37° C.; table 6
E. coli A20341-1 = experiment: Minimum Inhibitory Concentration, tube dilution; type: cell-based; settings: Escherichia coli, A203411, overnight 37° C.; table 6
E. cloacae A-9656 = experiment: Minimum Inhibitory Concentration, tube dilution; type: cell-based; settings: Enterobacter cloacae, A9656; overnight 37° C.; table 6
B. fragilis A22862 = experiment: Minimum Inhibitory Concentration, tube dilution; type: cell-based; settings: Bacteroides fragilis, overnight 37° C., table 6
S. aureus A9606 = experiment: Protective effect, intramuscular treatment of infected mice (table 7); type: in vivo; settings: Staphylococcus aureus, A9606, im; i.m. 0 to 2 hours post-infection; ~1×10^9 organisms i.p.; read-out: PD50 /treatment
Description: as §1

P. mirabilis A9900 = experiment: as above; type: in vivo; settings: Proteus mirabilis, A9900, im; i.m. 1 and 3.5 hours post-infection; ~1×10^7 organisms i.p.; read-out: PD50 /treatment
Description: as §1

P. aeruginosa A20481 = experiment: as above; type: in vivo; settings: Pseudomonas aeruginosa, A20481, im; i.m. 1 and 3.5 hours post-infection; ~1×10^5 organisms i.p.; read-out: PD50 /treatment
Description: as §1

S. faecalis A20688 = experiment: Minimum Inhibitory Concentration, tube dilution; type: cell-based; settings: Enterococcus faecalis
P. aeruginosa A21213 = experiment: Minimum Inhibitory Concentration, tube dilution; type: cell-based; settings: Pseudomonas aeruginosa
P. rettgeri A22424 = experiment: Minimum Inhibitory Concentration, tube dilution; type: cell-based; settings: Providencia rettgeri, overnight 37° C., table 6, read-out: MIC
E. cloacae A9659 = experiment: Minimum Inhibitory Concentration, tube dilution; type: cell-based; settings: Enterobacter cloacae, A9659, overnight 37° C.; table 6; read-out: MIC
H. influenzae A21518 = experiment: Minimum Inhibitory Concentration, tube dilution; type: cell-based; settings: Haemophilus influenzae, overnight 37° C., table 6
S. pneumoniae A-9585 = experiment: Minimum Inhibitory Concentration, tube dilution; type: cell-based; settings: Streptococcus pneumoniae, A9585, overnight 37° C.; table 6
[3] = system: S. aureus A15097 (Meth-res.); experiment: Minimum Inhibitory Concentration, tube dilution; type: cell-based; settings: Staphylococcus aureus, table 6
M. morganii A15153 = experiment: Minimum Inhibitory Concentration, tube dilution; type: cell-based; settings: Morganella morganii, A15153, overnight 37° C.; table 6
B. fragilis A22696 = experiment: Minimum Inhibitory Concentration, tube dilution; type: cell-based; settings: Bacteroides fragilis
[4] = Pharmacokinetic parameters in the mouse after intramuscular dose; type: in vivo, mice; settings: im, 20 mg/kg; for AUC / Cmax / half-life: blood; for half-life: read-out: T1/2 (blood); for dose excreted: urine, read-out: Urine Recovery
Description: Also shown is the urinary recovery in the mice.
Compounds were solubilized in 0.1 M phosphate buffer pH 7.

S. marcescens A20019 = experiment: Minimum Inhibitory Concentration, tube dilution; type: cell-based; settings: Serratia marcescens, A20019, overnight 37° C.; table 6
[5] = A20688, overnight 37° C., table 6, read-out: MIC
[6] = A21213, overnight 37° C., table 6, read-out: MIC
[7] = overnight 37° C., table 6, read-out: MIC

SMILES	MIC (P. mirabilis A-9900) [µg/mL]	MIC (E. coli A15119) [µg/mL]	MIC (S. pyogenes A-9604) [µg/mL]	MIC (P. aeruginosa A-9843A) [µg/mL]	MIC (S. aureus A-9537; A9537, 50% serum) [µg/mL]	MIC (S. aureus A-9537; A9537, overnight 37° C.) [µg/mL]	ED50 (P. aeruginosa A9843A) [mg/kg]	MIC (H. influenzae A-9833) [µg/mL]	MIC [2] [µg/mL]	MIC (P. vulgaris A21559) [µg/mL]	MIC (E. coli A20341-1) [µg/mL]	MIC (B. fragilis A22862) [µg/mL]	ED50 (S. aureus A9606) [mg/kg]	ED50 (P. mirabilis A9900) [mg/kg]	ED50 (P. aeruginosa A20481) [mg/kg]	MIC (S. faecalis A20688; [5]) [µg/mL]	MIC (H. influenzae A21518) [µg/mL]	MIC (S. pneumoniae A-9585) [µg/mL]	MIC [3] [µg/mL]	MIC (M. morganii A15153) [µg/mL]	further results
Cc1cc(C)c[n+](CCSC2=C(C(=O)[O-])N3C(=O)[C@H]([C@@H](C)O)[C@H]3C2)c1 [Example 4]	0.25 (≈ 0.69 µM)	0.06 (≈ 0.166 µM)	0.03 (≈ 0.0828 µM)	32 (≈ 88.3 µM)	0.03 (≈ 0.0828 µM)	0.03 (≈ 0.0828 µM)	5	> 32	0.5 (≈ 1.38 µM)	0.03 (≈ 0.0828 µM)	0.06 (≈ 0.166 µM)	0.06 (≈ 0.166 µM)	0.4	~22	> 5	0.5 (≈ 1.38 µM)	> 32	0.03 (≈ 0.0828 µM)	> 63	0.25 (≈ 0.69 µM)	MIC (K. pneumoniae A20468; A20468, overnight 37° C., table 6, read-out: MIC): 0.25 µg/mL (≈ 0.69 µM); half-life at 100 µM [1]: 16.9 h; MIC (E. cloacae A-9656): 0.25 µg/mL (≈ 0.69 µM); MIC (P. aeruginosa A21213; [6]): 2 µg/mL (≈ 5.52 µM); MIC (P. rettgeri A22424): 0.5 µg/mL (≈ 1.38 µM); MIC (E. cloacae A9659): 0.25 µg/mL (≈ 0.69 µM); MIC (B. fragilis A22696; [7]): 0.25 µg/mL (≈ 0.69 µM); AUC [4]: 5500 ng·h/mL; Cmax [4]: 11400 ng/mL; half-life [4]: 0.173 h; dose excreted [4]: 49 ± 6%
C[C@@H](O)[C@H]1C(=O)N2C(C(=O)[O-])=C(SCC[n+]3ccc(CO)cc3)C[C@H]12 [Example 6, (5R, 6S)-3-[2-(4-hydroxymethylpyridinio)ethylthio]-6-[1-(R)-hydroxyethyl]-7-oxo-1-azabicyclo[3.2.0]hept-2-ene-2-carboxylate]	0.06 (≈ 0.165 µM)	0.03 (≈ 0.0823 µM)	0.03 (≈ 0.0823 µM)	4 (≈ 11 µM)	–	0.03 (≈ 0.0823 µM)	0.9	> 32	0.03 (≈ 0.0823 µM)	0.03 (≈ 0.0823 µM)	0.03 (≈ 0.0823 µM)	0.06 (≈ 0.165 µM)	~3	~16	0.6	1 (≈ 2.74 µM)	> 32	0.03 (≈ 0.0823 µM)	> 63	0.03 (≈ 0.0823 µM)	MIC (S. marcescens A20019): 0.06 µg/mL (≈ 0.165 µM); MIC (K. pneumoniae A20468; A20468): 0.5 µg/mL (≈ 1.37 µM); half-life [1]: 14.5 h; MIC (P. aeruginosa A21213; A21213): 0.5 µg/mL (≈ 1.37 µM); MIC (B. fragilis A22696): 0.5 µg/mL (≈ 1.37 µM); AUC [4]: 7700 ng·h/mL; Cmax [4]: 15200 ng/mL; half-life [4]: 0.167 h; dose excreted [4]: 38 ± 13%
C[C@@H](O)[C@H]1C(=O)N2C(C(=O)[O-])=C(SCC[n+]3cccc(CO)c3)C[C@H]12 [Example 5, (5R,6S)-3-[[2-(3-hydroxymethylpyridino)ethyl]thio]-6-[(R)-1-hydroxyethyl]-7-oxo-1-azabicyclo[3.2.0]hept-2-ene-2-carboxylate]	–	0.06 (≈ 0.165 µM)	0.03 (≈ 0.0823 µM)	2 (≈ 5.49 µM)	0.06 (≈ 0.165 µM)	0.03 (≈ 0.0823 µM)	0.9	> 32	0.03 (≈ 0.0823 µM)	0.06 (≈ 0.165 µM)	0.06 (≈ 0.165 µM)	0.06 (≈ 0.165 µM)	0.5	22	0.8	0.5 (≈ 1.37 µM)	> 32	0.03 (≈ 0.0823 µM)	> 63	–	half-life [1]: 14 h; MIC (B. fragilis A22696; [7]): 0.5 µg/mL (≈ 1.37 µM)
Cc1cccc[n+]1CCSC1=C(C(=O)[O-])N2C(=O)[C@H]([C@@H](C)O)[C@H]2C1 [Example 7, 3-[2-(1-(2-methylpyridinium))ethylthio]-6α-[1-(R)-hydroxyethyl]-7-oxo-1-azabicyclo(3.2.0)hept-2-ene-carboxylate]	0.03 (≈ 0.0861 µM)	0.03 (≈ 0.0861 µM)	0.03 (≈ 0.0861 µM)	4 (≈ 11.5 µM)	0.03 (≈ 0.0861 µM)	0.03 (≈ 0.0861 µM)	0.9	> 32	0.03 (≈ 0.0861 µM)	0.03 (≈ 0.0861 µM)	0.03 (≈ 0.0861 µM)	0.06 (≈ 0.172 µM)	0.6	~22	1.4	–	> 32	0.03 (≈ 0.0861 µM)	> 63	0.03 (≈ 0.0861 µM)	MIC (S. marcescens A20019): 0.03 µg/mL (≈ 0.0861 µM); half-life at 100 µM [1]: 15 h; MIC (S. faecalis A20688; A20688): 0.5 µg/mL (≈ 1.44 µM); MIC (P. aeruginosa A21213; [6]): 1 µg/mL (≈ 2.87 µM); MIC (E. cloacae A9659): 0.06 µg/mL (≈ 0.172 µM); MIC (B. fragilis A22696): 0.5 µg/mL (≈ 1.44 µM); AUC [4]: 7000 ng·h/mL; Cmax [4]: 15000 ng/mL; half-life [4]: 0.183 h; dose excreted [4]: 49 ± 9%
